PubChem BioAssay (NCI)
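A five-concentration, 48-hour dose response in 96-well plates underlies each endpoint, interpolated linearly between surrounding concentrations. At the GI50, growth is halved. TGI: concentration producing complete growth inhibition.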

Experiments:
Experiment in all cases: NCI tumour cell line growth inhibition, 48 h
MOLT-4 leukemia = test system: MOLT-4 leukemia
HOP-62 NSCLC = test system: HOP-62 NSCLC
UACC-62 melanoma = test system: UACC-62 melanoma
HCT-116 colon = test system: HCT-116 colon
M14 melanoma = test system: M14 melanoma
T-47D breast = test system: T-47D breast
OVCAR-3 ovarian = test system: OVCAR-3 ovarian
LOX IMVI melanoma = test system: LOX IMVI melanoma
NCI-H522 lung = test system: NCI-H522 lung
786-0 renal = test system: 786-0 renal
SNB-19 CNS = test system: SNB-19 CNS
SF-539 CNS = test system: SF-539 CNS
COLO 205 colon = test system: COLO 205 colon
OVCAR-4 ovarian = test system: OVCAR-4 ovarian
EKVX NSCLC = test system: EKVX NSCLC
RPMI-8226 leukemia = test system: RPMI-8226 leukemia
RXF 393 renal = test system: RXF 393 renal
BT-549 breast = test system: BT-549 breast
UACC-257 melanoma = test system: UACC-257 melanoma
CAKI-1 renal = test system: CAKI-1 renal
SN12C renal = test system: SN12C renal
HOP-92 NSCLC = test system: HOP-92 NSCLC
SF-295 CNS = test system: SF-295 CNS
HL-60(TB) leukemia = test system: HL-60(TB) leukemia
TK-10 renal = test system: TK-10 renal
NCI-H23 lung = test system: NCI-H23 lung
SNB-75 CNS = test system: SNB-75 CNS
SF-268 CNS = test system: SF-268 CNS
ACHN renal = test system: ACHN renal
MCF7 breast = test system: MCF7 breast
IGROV1 ovarian = test system: IGROV1 ovarian
UO-31 renal = test system: UO-31 renal
SK-MEL-28 melanoma = test system: SK-MEL-28 melanoma
SK-OV-3 ovarian = test system: SK-OV-3 ovarian
A498 renal = test system: A498 renal
NCI/ADR-RES ovarian = test system: NCI/ADR-RES ovarian
DU-145 prostate = test system: DU-145 prostate
MDA-MB-435 = test system: MDA-MB-435
SW-620 colon = test system: SW-620 colon
PC-3 prostate = test system: PC-3 prostate
HT29 colon = test system: HT29 colon
K-562 leukemia = test system: K-562 leukemia
U251 CNS = test system: U251 CNS
HCT-15 colon = test system: HCT-15 colon
MALME-3M melanoma = test system: MALME-3M melanoma
NCI-H460 lung = test system: NCI-H460 lung
A549 NSCLC = test system: A549 NSCLC
SK-MEL-2 melanoma = test system: SK-MEL-2 melanoma
CCRF-CEM leukemia = test system: CCRF-CEM leukemia
HS 578T breast = test system: HS 578T breast
KM12 colon = test system: KM12 colon
OVCAR-8 ovarian = test system: OVCAR-8 ovarian
MDA-MB-231 breast = test system: MDA-MB-231 breast
SK-MEL-5 melanoma = test system: SK-MEL-5 melanoma
NCI-H226 lung = test system: NCI-H226 lung
OVCAR-5 ovarian = test system: OVCAR-5 ovarian

For O=C1C=Cc2cscc21, the TGI (MOLT-4 leukemia) was 37.5 µM, the TGI (HOP-62 NSCLC) was over 100 µM and the TGI (UACC-62 melanoma) was over 100 µM. The TGI (HCT-116 colon) was 29.3 µM, the TGI (M14 melanoma) was 84.5 µM and the TGI (T-47D breast) was 81.5 µM. It also gave a TGI (OVCAR-3 ovarian) of 47.7 µM, a TGI (LOX IMVI melanoma) of over 100 µM and a TGI (NCI-H522 lung) of 42.5 µM. It also gave a TGI (786-0 renal) of 31.4 µM, a TGI (SNB-19 CNS) of over 100 µM and a TGI (SF-539 CNS) of over 100 µM. The TGI (COLO 205 colon) was over 100 µM, the TGI (OVCAR-4 ovarian) was over 100 µM and the TGI (EKVX NSCLC) was over 100 µM. The TGI (RPMI-8226 leukemia) was over 100 µM, the TGI (RXF 393 renal) was 32.8 µM and the TGI (BT-549 breast) was over 100 µM. The TGI (UACC-257 melanoma) was over 100 µM, the TGI (CAKI-1 renal) was 67 µM and the TGI (SN12C renal) was 96.8 µM. For the same compound, the TGI (HOP-92 NSCLC) was over 100 µM, the TGI (SF-295 CNS) was over 100 µM and the TGI (HL-60(TB) leukemia) was over 100 µM. The TGI (TK-10 renal) was over 100 µM, the TGI (NCI-H23 lung) was over 100 µM and the TGI (SNB-75 CNS) was over 100 µM. The TGI (SF-268 CNS) was over 100 µM, the TGI (ACHN renal) was over 100 µM and the TGI (MCF7 breast) was 68.1 µM. For the same compound, the TGI (IGROV1 ovarian) was over 100 µM, the TGI (UO-31 renal) was 85.8 µM and the TGI (SK-MEL-28 melanoma) was over 100 µM. The TGI (SK-OV-3 ovarian) was over 100 µM, the TGI (A498 renal) was over 100 µM and the TGI (NCI/ADR-RES ovarian) was over 100 µM. It also gave a TGI (DU-145 prostate) of over 100 µM, a TGI (MDA-MB-435) of over 100 µM and a TGI (SW-620 colon) of over 100 µM. It also gave a TGI (PC-3 prostate) of over 100 µM, a TGI (HT29 colon) of over 100 µM and a TGI (K-562 leukemia) of over 100 µM. The TGI (U251 CNS) was over 100 µM, the TGI (HCT-15 colon) was 66.9 µM and the TGI (MALME-3M melanoma) was 63.7 µM. It also gave a TGI (NCI-H460 lung) of over 100 µM, a TGI (A549 NSCLC) of over 100 µM and a TGI (SK-MEL-2 melanoma) of over 100 µM. The TGI (CCRF-CEM leukemia) was 52.6 µM, the TGI (HS 578T breast) was over 100 µM and the TGI (KM12 colon) was over 100 µM. The TGI (OVCAR-8 ovarian) was over 100 µM, the TGI (MDA-MB-231 breast) was 80.6 µM and the TGI (SK-MEL-5 melanoma) was over 100 µM.

Work on CCOC(=O)c1cc(NC(=O)c2cc(NC(=O)c3cc(NC(=O)c4c(-c5ccccc5)noc4C)cn3C)cn2C)cn1C yielded a GI50 (MOLT-4 leukemia) of 8.97 µM, a TGI (MOLT-4 leukemia) of over 100 µM and a GI50 (UACC-62 melanoma) of 44.4 µM. The TGI (UACC-62 melanoma) was over 100 µM, the GI50 (M14 melanoma) was 47.1 µM and the TGI (M14 melanoma) was over 100 µM. For the same compound, the GI50 (T-47D breast) was over 100 µM, the TGI (T-47D breast) was over 100 µM and the GI50 (OVCAR-3 ovarian) was 47.9 µM. For the same compound, the TGI (OVCAR-3 ovarian) was over 100 µM, the GI50 (LOX IMVI melanoma) was over 100 µM and the TGI (LOX IMVI melanoma) was over 100 µM. For the same compound, the GI50 (NCI-H522 lung) was over 100 µM, the TGI (NCI-H522 lung) was over 100 µM and the GI50 (786-0 renal) was over 100 µM. The TGI (786-0 renal) was over 100 µM, the GI50 (SNB-19 CNS) was over 100 µM and the TGI (SNB-19 CNS) was over 100 µM. For the same compound, the GI50 (COLO 205 colon) was over 100 µM, the TGI (COLO 205 colon) was over 100 µM and the GI50 (OVCAR-4 ovarian) was over 100 µM. For the same compound, the TGI (OVCAR-4 ovarian) was over 100 µM, the GI50 (RXF 393 renal) was over 100 µM and the TGI (RXF 393 renal) was over 100 µM. It also gave a GI50 (BT-549 breast) of 4.37 µM, a TGI (BT-549 breast) of 59.5 µM and a GI50 (CAKI-1 renal) of over 100 µM. The TGI (CAKI-1 renal) was over 100 µM, the GI50 (SN12C renal) was 73.4 µM and the TGI (SN12C renal) was over 100 µM. It also gave a GI50 (NCI-H226 lung) of 60.3 µM, a TGI (NCI-H226 lung) of over 100 µM and a GI50 (HOP-92 NSCLC) of 0.241 µM. It also gave a TGI (HOP-92 NSCLC) of 4.36 µM, a GI50 (SF-295 CNS) of over 100 µM and a TGI (SF-295 CNS) of over 100 µM. The GI50 (HL-60(TB) leukemia) was 10.6 µM, the TGI (HL-60(TB) leukemia) was over 100 µM and the GI50 (TK-10 renal) was over 100 µM. The TGI (TK-10 renal) was over 100 µM, the GI50 (NCI-H23 lung) was over 100 µM and the TGI (NCI-H23 lung) was over 100 µM. For the same compound, the GI50 (SNB-75 CNS) was over 100 µM, the TGI (SNB-75 CNS) was over 100 µM and the GI50 (SF-268 CNS) was over 100 µM. The TGI (SF-268 CNS) was over 100 µM, the GI50 (ACHN renal) was over 100 µM and the TGI (ACHN renal) was over 100 µM. The GI50 (MCF7 breast) was over 100 µM, the TGI (MCF7 breast) was over 100 µM and the GI50 (IGROV1 ovarian) was over 100 µM. It also gave a TGI (IGROV1 ovarian) of over 100 µM, a GI50 (UO-31 renal) of over 100 µM and a TGI (UO-31 renal) of over 100 µM. For the same compound, the GI50 (SK-MEL-28 melanoma) was over 100 µM, the TGI (SK-MEL-28 melanoma) was over 100 µM and the GI50 (SK-OV-3 ovarian) was over 100 µM. For the same compound, the TGI (SK-OV-3 ovarian) was over 100 µM, the GI50 (A498 renal) was over 100 µM and the TGI (A498 renal) was over 100 µM. It also gave a GI50 (NCI/ADR-RES ovarian) of over 100 µM, a TGI (NCI/ADR-RES ovarian) of over 100 µM and a GI50 (DU-145 prostate) of 16.9 µM. The TGI (DU-145 prostate) was over 100 µM, the GI50 (MDA-MB-435) was over 100 µM and the TGI (MDA-MB-435) was over 100 µM. For the same compound, the GI50 (SW-620 colon) was over 100 µM, the TGI (SW-620 colon) was over 100 µM and the GI50 (PC-3 prostate) was 19.2 µM. It also gave a TGI (PC-3 prostate) of over 100 µM, a GI50 (HT29 colon) of over 100 µM and a TGI (HT29 colon) of over 100 µM. For the same compound, the GI50 (K-562 leukemia) was 9.3 µM, the TGI (K-562 leukemia) was over 100 µM and the GI50 (U251 CNS) was over 100 µM. For the same compound, the TGI (U251 CNS) was over 100 µM, the GI50 (HCT-15 colon) was over 100 µM and the TGI (HCT-15 colon) was over 100 µM. For the same compound, the GI50 (MALME-3M melanoma) was 91.2 µM, the TGI (MALME-3M melanoma) was over 100 µM and the GI50 (NCI-H460 lung) was over 100 µM. The TGI (NCI-H460 lung) was over 100 µM, the GI50 (OVCAR-5 ovarian) was over 100 µM and the TGI (OVCAR-5 ovarian) was over 100 µM. The GI50 (SK-MEL-2 melanoma) was over 100 µM, the TGI (SK-MEL-2 melanoma) was over 100 µM and the GI50 (HS 578T breast) was over 100 µM. The TGI (HS 578T breast) was over 100 µM, the GI50 (KM12 colon) was over 100 µM and the TGI (KM12 colon) was over 100 µM. For the same compound, the GI50 (MDA-MB-231 breast) was 35 µM, the TGI (MDA-MB-231 breast) was over 100 µM and the GI50 (SK-MEL-5 melanoma) was over 100 µM. The TGI (SK-MEL-5 melanoma) was over 100 µM.
